# Experimental data: patent US6737383B1, “Herbicidal oxadiazolidines” (priority 1999, dated 2004)
# Key:
# blackgrass = test: Test B pre/postemergence blackgrass; assay type: in vivo, Alopecurus myosuroides
# Method in brief: (§1)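 Test chemicals in a non-phytotoxic solvent mixture with surfactant were sprayed preemergence onto planted seeds and postemergence onto plants 2 to 18 cm tall (1- to 4-leaf stage). After twelve to sixteen days in a greenhouse, injury was visually rated against untreated controls from 0 (no effect) to 10 (complete control).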
# wheat = test: Test B pre/postemergence wheat; assay type: in vivo, Triticum aestivum
# Method in brief: as §1
# bedstraw = test: Test B pre/postemergence bedstraw; assay type: in vivo, Galium aparine
# Method in brief: as §1
# velvetleaf = test: Test B pre/postemergence velvetleaf; assay type: in vivo, Abutilon theophrasti
# Method in brief: as §1
# [1] = Preemergence, Rate 62 g/ha, scale of 0 to 10 where 0 is no effect and 10 is complete control
# [2] = Preemergence, Rate 250 g/ha, scale of 0 to 10 where 0 is no effect and 10 is complete control
# [3] = Preemergence, Rate 500 g/ha, scale of 0 to 10 where 0 is no effect and 10 is complete control
# [4] = Rate 62 g/ha, Postemergence, scale of 0 to 10 where 0 is no effect and 10 is complete control
# [5] = Rate 125 g/ha, Postemergence, scale of 0 to 10 where 0 is no effect and 10 is complete control
# [6] = Rate 125 g/ha, Preemergence, scale of 0 to 10 where 0 is no effect and 10 is complete control
# [7] = Rate 250 g/ha, Postemergence, scale of 0 to 10 where 0 is no effect and 10 is complete control
# [8] = Rate 500 g/ha, Postemergence, scale 0 to 10, 0 no effect, 10 complete control
# [9] = Rate 62 g/ha, Postemergence, scale 0 to 10 (0 no effect, 10 complete control)
# [10] = Postemergence, Rate 62 g/ha, scale 0 to 10, 0 is no effect, 10 is complete control
# [11] = Postemergence, Rate 250 g/ha, scale 0 to 10, 0 no effect, 10 complete control
# [12] = Preemergence, Rate 62 g/ha, scale 0 to 10 (0 no effect, 10 complete control)
# [13] = Preemergence, Rate 125 g/ha, scale 0 to 10 (0 no effect, 10 complete control)
# [14] = Preemergence, Rate 500 g/ha, scale 0 (no effect) to 10 (complete control)
# [15] = Rate 125 g/ha, Postemergence, scale 0 to 10, 0 no effect, 10 complete control
smiles,measurement,setting,value
Cc1ccccc1-n1c(=O)on(C(=O)N(c2ccc(Oc3ccccc3)cc2)C(C)C)c1=O [Compound 268],Blackgrass plant response rating,blackgrass; [1],0
same,Blackgrass plant response rating,blackgrass; [2],0
same,"Plant response rating, Blackgrass",blackgrass; [3],0
same,Blackgrass plant response rating,blackgrass; [4],0
same,Blackgrass plant response rating,blackgrass; [5],0
same,Blackgrass plant response rating,blackgrass; [6],0
same,"Plant response rating, Blackgrass",blackgrass; [7],0
same,Wheat plant response rating,wheat; [1],0
same,Wheat plant response rating,wheat; [2],0
same,"Plant response rating, Wheat",wheat; [3],0
same,Wheat plant response rating,wheat; [5],0
same,Wheat plant response rating,wheat; [6],0
same,"Plant response rating, Wheat",wheat; [7],0
same,Bedstraw plant response rating,bedstraw; [1],0
same,Bedstraw plant response rating,bedstraw; [2],0
same,"Plant response rating, Bedstraw",bedstraw; [3],0
same,Bedstraw plant response rating,bedstraw; [4],0
same,Bedstraw plant response rating,bedstraw; [5],0
same,Bedstraw plant response rating,bedstraw; [6],0
same,"Plant response rating, Bedstraw",bedstraw; [7],0
same,Velvetleaf plant response rating,velvetleaf; [1],0
same,Velvetleaf plant response rating,velvetleaf; [2],0
same,"Plant response rating, Velvetleaf",velvetleaf; [3],0
same,Velvetleaf plant response rating,velvetleaf; [5],0
same,Velvetleaf plant response rating,velvetleaf; [6],0
same,"Plant response rating, Velvetleaf",velvetleaf; [7],0
same,Velvetleaf plant response rating,velvetleaf; [8],0
CCc1cccc(CC)c1-n1c(=O)on(C(=O)N(c2ccc(F)cc2)C(C)C)c1=O [Compound 304],Blackgrass plant response rating,blackgrass; [1],0
same,Blackgrass plant response rating (0 to 10 scale),"blackgrass; Preemergence, Rate 125 g/ha",0
same,Blackgrass plant response rating,blackgrass; [2],0
same,Blackgrass plant response rating,blackgrass; [3],0
same,Blackgrass plant response rating,blackgrass; [9],0
same,Blackgrass plant response rating,blackgrass; [5],0
same,"Plant response rating, Blackgrass",blackgrass; [7],0
same,Blackgrass plant response rating,blackgrass; [8],4
same,Wheat plant response rating,wheat; [1],0
same,Wheat plant response rating (0 to 10 scale),"wheat; Preemergence, Rate 125 g/ha",0
same,Wheat plant response rating,wheat; [2],0
same,Wheat plant response rating,wheat; [3],0
same,Wheat plant response rating,wheat; [9],0
same,Wheat plant response rating,wheat; [5],0
same,"Plant response rating, Wheat",wheat; [7],0
same,Bedstraw plant response rating,bedstraw; [1],0
same,Bedstraw plant response rating (0 to 10 scale),"bedstraw; Preemergence, Rate 125 g/ha",0
same,Bedstraw plant response rating,bedstraw; [2],0
same,Bedstraw plant response rating,bedstraw; [3],0
same,Bedstraw plant response rating,bedstraw; [9],0
same,Bedstraw plant response rating,bedstraw; [5],0
same,Velvetleaf plant response rating,velvetleaf; [1],0
same,Velvetleaf plant response rating (0 to 10 scale),"velvetleaf; Preemergence, Rate 125 g/ha",0
same,Velvetleaf plant response rating,velvetleaf; [2],0
same,Velvetleaf plant response rating,velvetleaf; [3],0
same,Velvetleaf plant response rating,velvetleaf; [9],0
same,Velvetleaf plant response rating,velvetleaf; [5],0
same,"Plant response rating, Velvetleaf",velvetleaf; [7],0
Cc1nn(C)c(C)c1-n1c(=O)on(C(=O)N(c2ccc(F)cc2F)C(C)C)c1=O [Compound 76],Blackgrass plant response rating,blackgrass; [10],0
same,Blackgrass plant response rating,blackgrass; [11],6
same,Blackgrass plant response rating,blackgrass; [12],0
same,"Plant response rating, Blackgrass",blackgrass; [13],2
same,"Plant response rating, Blackgrass",blackgrass; [2],4
same,Blackgrass plant response rating,blackgrass; [14],8
same,Blackgrass plant response rating,blackgrass; [15],2
same,Blackgrass plant response rating,blackgrass; [8],8
same,Wheat plant response rating,wheat; [10],0
same,Wheat plant response rating,wheat; [11],0
same,Wheat plant response rating,wheat; [12],0
same,"Plant response rating, Wheat",wheat; [13],0
same,"Plant response rating, Wheat",wheat; [2],0
same,Wheat plant response rating,wheat; [14],2
same,Wheat plant response rating,wheat; [15],0
same,Wheat plant response rating,wheat; [8],3
same,Bedstraw plant response rating,bedstraw; [10],0
same,Bedstraw plant response rating,bedstraw; [11],2
same,Bedstraw plant response rating,bedstraw; [12],0
same,"Plant response rating, Bedstraw",bedstraw; [13],0
same,"Plant response rating, Bedstraw",bedstraw; [2],0
same,Bedstraw plant response rating,bedstraw; [14],0
same,Bedstraw plant response rating,bedstraw; [15],0
same,Bedstraw plant response rating,bedstraw; [8],4
same,Velvetleaf plant response rating,velvetleaf; [10],0
same,Velvetleaf plant response rating,velvetleaf; [11],3
same,Velvetleaf plant response rating,velvetleaf; [12],0
same,"Plant response rating, Velvetleaf",velvetleaf; [13],0
same,"Plant response rating, Velvetleaf",velvetleaf; [2],0
same,Velvetleaf plant response rating,velvetleaf; [14],0
same,Velvetleaf plant response rating,velvetleaf; [15],0
same,Velvetleaf plant response rating,velvetleaf; [8],4
